From PubChem BioAssay (NCI)
Values joined by “and” are separate entries in the source; they are usually repeats but may differ in a detail not shown here. Identical values can stand only once.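 Following 48 hours of exposure in 96-well plates, responses at five concentrations were used to interpolate endpoints linearly. Abbreviation: GI50, concentration required for 50% inhibition of growth. TGI marks complete inhibition of growth.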

Legend:
Assay in all cases: NCI anticancer screen, dose series, 48 h
NCI-H460 lung = test system: NCI-H460 lung
786-0 renal = test system: 786-0 renal
UO-31 renal = test system: UO-31 renal
OVCAR-3 ovarian = test system: OVCAR-3 ovarian
MALME-3M melanoma = test system: MALME-3M melanoma
OVCAR-5 ovarian = test system: OVCAR-5 ovarian
SNB-19 CNS = test system: SNB-19 CNS
CCRF-CEM leukemia = test system: CCRF-CEM leukemia
NCI-H226 lung = test system: NCI-H226 lung
OVCAR-8 ovarian = test system: OVCAR-8 ovarian

| SMILES | GI50 (NCI-H460 lung) [µM] | TGI (NCI-H460 lung) [µM] | GI50 (786-0 renal) [µM] | TGI (786-0 renal) [µM] | GI50 (UO-31 renal) [µM] | TGI (UO-31 renal) [µM] | GI50 (OVCAR-3 ovarian) [µM] | TGI (OVCAR-3 ovarian) | GI50 (MALME-3M melanoma) [µM] | TGI (MALME-3M melanoma) | GI50 (OVCAR-5 ovarian) [µM] | TGI (OVCAR-5 ovarian) | GI50 (SNB-19 CNS) [µM] | TGI (SNB-19 CNS) [µM] | GI50 (CCRF-CEM leukemia) [µM] | TGI (CCRF-CEM leukemia) [µM] | GI50 (NCI-H226 lung) [µM] | TGI (NCI-H226 lung) [µM] | GI50 (OVCAR-8 ovarian) [µM] | TGI (OVCAR-8 ovarian) [µM] |
| --- | --- | --- | --- | --- | --- | --- | --- | --- | --- | --- | --- | --- | --- | --- | --- | --- | --- | --- | --- | --- |
| N#Cc1cc(S(=O)(=O)Nc2nc3ccccc3s2)c(SCc2ccccc2)cc1Cl | 18.4 | > 100 | 19.3 | 39.9 | 17.8 | 42.1 | 22.3 | 59.5 µM | 21.4 | 49.6 µM | 23.8 | 54.7 µM | 20.1 | 47.7 | 28.5 | 94.6 | 31 | 94.3 | 6.12 | 39.8 |
| C/C=C(\C)C(=O)N[C@H]1C(O)C[C@]2(C)C3CC[C@@]4(C)C(CC[C@@H]4C(C)N(C)C)C3CCC2C1O (stereo partly drawn) | 2.07 | 4.59 | 4.95 | 10.6 | 2.03 | 5.73 | 4.68 | 19.5 µM | 2.6 | 7.47 µM | 16.7 | > 47.9 µM | 18.8 | 43.8 | 7.76 | 75.8 | 12.1 | > 70.2 | 28.9 | > 90.8 |
| Cc1ccccc1-n1c(C)nc(-c2ccccc2)cc1=O | – | > 100 | – | > 100 | – | > 100 | – | > 100 µM | – | > 100 µM | – | > 100 µM | – | > 100 | – | > 100 | – | > 100 | – | > 100 |
| COc1ccc(C2=CC(c3ccc(OC)c(OC)c3)c3c(c4ccccc4oc3=O)O2)cc1OC (stereo not drawn) | 1.9 | > 100 | 1.15 | 11.7 | 1.58 | > 100 | 0.313 | – | > 100 | > 100 µM | 6.33 | > 100 µM | 1.99 | > 77.3 | 2.36 | > 100 | > 21.1 | > 100 | 4.9 | > 100 |
| Cc1ccc(NC(=O)C(=O)Cc2cc[n+]([O-])cc2)cc1 | – | > 100 | – | > 100 | – | > 100 | – | > 100 µM | – | > 100 µM | – | > 100 µM | – | > 100 | – | > 100 | – | > 100 | – | > 100 |
| CC(=O)Oc1ccc(C(c2ccc(OC(C)=O)cc2)c2ccccn2)cc1 | > 78.5 | > 100 | – | > 100 | 21.4 | > 100 | 9.94 | 98.9 µM and 23.2 µM | 29.4 | > 100 µM | 55.7 | > 100 µM and 95.4 µM | – | > 100 | 43 | > 100 | 40.2 | > 100 | 21.8 | > 100 |
| CC(C)COC(=O)c1ccc2[nH]c(O)c(C=Nc3ccc(S(N)(=O)=O)cc3)c2c1 | 0.787 | 3.41 | 1.21 | 4.24 | 2.44 | 10.2 | 0.802 | 2.28 µM | 4.97 | 10.9 µM | 1.87 | 13.8 µM | 1.93 | 13.7 | 0.823 | 15.3 | 1.73 | 6.79 | 1.04 | 4.62 |
| CC(Br)C(=O)Nc1ccc(C(=O)O)c(O)c1 (stereo not drawn) | – | > 100 | – | > 100 | – | > 100 | – | 73.7 µM | – | 42.1 µM | – | > 100 µM | – | > 100 | – | 43.6 | – | > 100 | – | > 100 |
| O=C(O)/C=C/C(=O)N1C/C(=C\c2ccccc2)C(=O)/C(=C/c2ccccc2)C1 | – | 30.8 | – | 10.6 | – | 24.9 | – | 15.6 µM | – | 12.3 µM | – | 31.8 µM | – | 23.6 | – | 7.18 | – | 31.3 | – | 11.7 |
| COC1=C2CC(C)CC(OC)C(O)C(C)/C=C(\C)C(OC(N)=O)C(OC)/C=C\C=C(/C)C(=O)NC(=C(/C=N/N3CCCCC3)C1=O)C2=O (stereo not drawn) | – | 57.1 | – | 22.8 | – | 23.4 | – | 4.62 µM | – | 28.7 µM | – | 34.5 µM | – | 41.9 | – | 7.85 | – | 34.5 | – | 16.6 |
| N#CC1=C(Cl)NC(Cl)=C(C#N)C1c1c(Cl)cccc1Cl | – | 38.3 | – | 68.5 | – | > 100 | – | 64.4 µM | – | > 100 µM | – | > 100 µM | – | > 100 | – | 54.5 | – | > 100 | – | 80 |
| CC(C)c1cc(OCC(O)CO)cc(C(C)C)c1 (stereo not drawn) | – | > 100 | – | > 100 | – | > 100 | – | > 100 µM | – | > 100 µM | – | > 100 µM | – | > 100 | – | > 100 | – | > 100 | – | > 100 |
| Cn1c(=O)c(Oc2ccc(F)cc2F)cc2cnc(NCCS(C)(=O)=O)nc21 | > 25 | > 25 | > 25 | > 25 | > 25 | > 25 | > 25 | > 25 µM | > 25 | > 25 µM | > 25 | > 25 µM | > 25 | > 25 | > 25 | > 25 | > 25 | > 25 | > 25 | > 25 |
| COC(=O)C1=CC2OC1(C)CCC2=O (stereo not drawn) | – | > 100 | – | > 100 | – | > 100 | – | > 100 µM | – | > 100 µM | – | > 100 µM | – | > 100 | – | > 100 | – | > 100 | – | > 100 |
| O=C(Nc1ccc(I)cc1F)c1cc(Cl)ccc1O | 0.434 | > 26.9 | 2.19 | 7.18 | 0.235 | 1.65 | 0.413 | 10.7 µM | 0.346 | 1.83 µM | 3.55 | > 100 µM | 0.372 | > 100 | 1.73 | 10 | 1.17 | 4.89 | 0.623 | 11 |
| O=C1c2nc3n(c2C(=O)c2c1nc1n2CCC1)CCC3 | 3.89 | 6.24 | 9.25 | > 47.8 | – | 37.4 | 3.42 | 9.74 µM and 7.87 µM | 2 | 3.54 µM and 2.17 µM | – | 30.7 µM | – | 27.9 | – | 31.4 | 7.84 | 19.1 | 7.87 | 22.5 |
